pIC50: −log10 of the molar value.
Key:
[1] = molecular target: T1, PDE4B: The catalytic domain of human PDE4B from S152-S528 (Homo sapiens, UniProt Q07343); test: PDE4 IC50 determination by Scintillation Proximity Assay, PDE4B; assay type: biochemical; settings: Table 1B, Formula I compounds; read-out: IC50 PDE4B
T1 construct: His6 (N); thrombin cleavage site (N); made in house; host or cells: E. coli
Experimental: (§1) IC50s were determined by Scintillation Proximity Assay (SPA). The principle of the assay is based on the fact that cAMP, the PDE4 substrate, binds weakly to Yittrium Silicate SPA beads, whereas AMP, the product of PDE4 hydrolysis binds strongly. Thus, the extent of PDE4 hydrolysis of a sample of [^3H]cAMP can be measured because only the
(§2) [^3H]AMP produced by PDE4 hydrolysis will bind to the SPA beads and produce a scintillation signal.
(§3) PDE4 enzymes used for IC50 assays were:
(§4) Enzyme was stored in 50% glycerol at −20°.
(§5) In addition to the compound dilutions, each assay plate contained control wells with 1 μl of DMSO (to define 0% enzyme inhibition) or 1 μl of 200 μM roflumilast (to define 100% enzyme inhibition). […] Next, 10 μl of PDE4 enzyme in assay buffer was added and the plates were shaken for 30 s. at 1000 rpm to start the cAMP hydrolysis reaction. The concentrations of enzyme used were: PDE4B, 80 ng/ml; PDE4D, 4 ng/ml; PDE4B2, 2.5 μl of 50% glycerol stock/ml; PDE4D5 0.083 μl of 50% glycerol stock/ml. Assay plates were covered and incubated for 30 min. at 30°. […] The assay plates were covered with clear plastic film, centrifuged for 1 min. at 1000 RPM to settle the SPA beads, and counted using a Wallac TriLux scintillation counter. IC50's were calculated from the raw assay data by non-linear regression curve fitting using the Assay Explorer software package from MDL.

PDE4D = molecular target: T2, PDE4D (Homo sapiens, UniProt Q08499); test: PDE4 IC50 determination by Scintillation Proximity Assay, PDE4D; assay type: biochemical; settings: Table 1B, Formula I compounds; read-out: IC50 PDE4D
T2 construct: PDE4D: The catalytic domain of human PDE4B from S3 16-V692; His6 (N); thrombin cleavage site (N); made in house; host or cells: E. coli
Experimental: as §1, §2, §3, §4, §5

T1 sequence (Q07343 with tags, fused parts or gaps): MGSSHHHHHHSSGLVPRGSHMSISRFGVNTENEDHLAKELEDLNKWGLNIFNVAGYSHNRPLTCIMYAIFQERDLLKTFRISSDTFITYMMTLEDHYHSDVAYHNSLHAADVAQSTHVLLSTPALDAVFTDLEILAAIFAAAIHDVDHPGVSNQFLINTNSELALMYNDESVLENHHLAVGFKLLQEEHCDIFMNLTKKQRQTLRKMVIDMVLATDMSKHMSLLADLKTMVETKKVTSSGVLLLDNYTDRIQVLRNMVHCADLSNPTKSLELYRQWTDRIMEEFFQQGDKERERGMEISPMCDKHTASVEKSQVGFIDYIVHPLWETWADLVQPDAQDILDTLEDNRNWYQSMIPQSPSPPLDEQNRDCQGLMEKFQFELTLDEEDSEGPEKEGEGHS
T2 sequence (Q08499 380-756): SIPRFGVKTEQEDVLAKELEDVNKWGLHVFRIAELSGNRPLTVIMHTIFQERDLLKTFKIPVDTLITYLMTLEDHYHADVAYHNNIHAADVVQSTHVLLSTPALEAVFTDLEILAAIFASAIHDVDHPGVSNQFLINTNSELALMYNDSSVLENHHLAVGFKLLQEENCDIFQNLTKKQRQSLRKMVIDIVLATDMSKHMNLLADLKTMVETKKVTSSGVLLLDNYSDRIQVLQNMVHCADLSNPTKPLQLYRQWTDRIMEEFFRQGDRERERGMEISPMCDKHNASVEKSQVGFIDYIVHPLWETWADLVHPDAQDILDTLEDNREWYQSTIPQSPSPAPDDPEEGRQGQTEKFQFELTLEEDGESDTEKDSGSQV

Row | Structure (SMILES) | pIC50 [1] | pIC50 (PDE4D)
1 | COc1cc(C#N)c(Nc2sc(C(=O)c3ccc(Cl)cc3)c(N)c2C#N)cc1OC [Compound 1-19, 4-Amino-5-(4-chloro-benzoyl)-2-(2-cyano-4,5-dimethoxy-phenylamino)-thiophene-3-carbonitrile] | > 5.00 | > 5.00
2 | Cc1cc(Cl)ccc1Nc1sc(C(=O)c2cc3cc(Cl)ccc3o2)c(N)c1C#N [Compound 1-23, 4-Amino-5-(5-chloro-benzofuran-2-carbonyl)-2-(4-chloro-2-methyl-phenylamino)-thiophene-3-carbonitrile] | < 5.00 | < 5.00
3 | CCOC(=O)c1c(Nc2c(C)cccc2C)sc(C(=O)c2ccc(Br)cc2)c1N [Compound 1-24, 4-Amino-5-(4-bromo-benzoyl)-2-(2,6-dimethyl-phenylamino)-thiophene-3-carboxylic acid ethyl ester] | < 5.00 | < 5.00
4 | N#Cc1c(Nc2ccccc2)sc(C(=O)Nc2nccs2)c1N [Compound 1-25, 3-Amino-4-cyano-5-phenylamino-thiophene-2-carboxylic acid thiazol-2-yl amide] | > 5.00 | > 5.00
5 | Cc1cc(NC(=O)c2sc(Nc3ccccc3)c(C#N)c2N)no1 [Compound 1-26, 3-Amino-4-cyano-5-phenylamino-thiophene-2-carboxylic acid (5-methyl-isoxazol-3-yl)-amide] | > 5.00 | > 5.00
6 | Cc1ccc(C(=O)c2sc(NCCN3CCCCC3)c(C#N)c2N)c(C)c1 [Compound 1-38, 4-Amino-5-(2,4-dimethyl-benzoyl)-2-(2-piperidin-1-yl-ethylamino)-thiophene-3-carbonitrile] | < 5.00 | < 5.00
7 | COc1ccc(OC)c(C(=O)c2sc(NCCN3CCCCC3)c(C#N)c2N)c1 [Compound 1-39, 4-Amino-5-(2,5-dimethoxy-benzoyl)-2-(2-piperidin-1-yl-ethylamino)-thiophene-3-carbonitrile] | < 5.00 | < 5.00
8 | COc1ccc(C(=O)c2sc(NCCN3CCCCC3)c(C#N)c2N)c(OC)c1 [Compound 1-41, 4-Amino-5-(2,4-dimethoxy-benzoyl)-2-(2-piperidin-1-yl-ethylamino)-thiophene-3-carbonitrile] | < 5.00 | < 5.00
9 | COC(=O)C(CC(C)C)Nc1sc(C(=O)c2ccc(OC)cc2OC)c(N)c1C#N (stereo not shown) [Compound 1-42, 2-[4-Amino-3-cyano-5-(2,4-dimethoxy-benzoyl)-thiophen-2-ylamino]-4-methyl-pentanoic acid methyl ester] | > 5.00 | < 5.00
10 | COc1ccc(C(=O)c2sc(NC3CCOC3=O)c(C#N)c2N)c(OC)c1 (stereo not shown) [Compound 1-44, 4-Amino-5-(2,4-dimethoxy-benzoyl)-2-(2-oxo-tetrahydro-furan-3-ylamino)-thiophene-3-carbonitrile] | > 5.00 | < 5.00
11 | N#Cc1c(NCCN2CCCCC2)sc(C(=O)c2coc3ccccc23)c1N [Compound 1-45, 4-Amino-5-(benzofuran-3-carbonyl)-2-(2-piperidin-1-yl-ethylamino)-thiophene-3-carbonitrile] | < 5.00 | < 5.00
12 | N#Cc1c(NCCN2CCCCC2)sc(C(=O)c2ccccc2Cl)c1N [Compound 1-46, 4-Amino-5-(2-chloro-benzoyl)-2-(2-piperidin-1-yl-ethylamino)-thiophene-3-carbonitrile] | < 5.00 | < 5.00
13 | N#Cc1c(NCCN2CCCCC2)sc(C(=O)c2cccc(Cl)c2)c1N [Compound 1-47, 4-Amino-5-(3-chloro-benzoyl)-2-(2-piperidin-1-yl-ethylamino)-thiophene-3-carbonitrile] | < 5.00 | < 5.00
14 | N#Cc1c(NCCN2CCCCC2)sc(C(=O)c2csc3ccccc23)c1N [Compound 1-48, 4-Amino-5-(benzo[b]thiophene-3-carbonyl)-2-(2-piperidin-1-yl-ethylamino)-thiophene-3-carbonitrile] | < 5.00 | < 5.00
15 | Cc1c(C(=O)c2sc(Nc3ccccc3F)c(C#N)c2N)cnn1-c1ccccc1 [Compound 1-49, 4-Amino-2-(2-fluoro-phenylamino)-5-(5-methyl-1-phenyl-1H-pyrazole-4-carbonyl)-thiophene-3-carbonitrile] | > 5.00 | > 5.00
16 | Cc1c(C(=O)c2sc(NCCN3CCCCC3)c(C#N)c2N)cnn1-c1ccccc1 [Compound 1-51, 4-Amino-5-(5-methyl-1-phenyl-1H-pyrazole-4-carbonyl)-2-(2-piperidin-1-yl-ethylamino)-thiophene-3-carbonitrile] | > 5.00 | < 5.00
17 | COC(=O)C(CC(C)C)Nc1sc(C(=O)c2cnn(-c3ccccc3)c2C)c(N)c1C#N (stereo not shown) [Compound 1-52, 2-[4-Amino-3-cyano-5-(5-methyl-1-phenyl-1H-pyrazole-4-carbonyl)-thiophen-2-ylamino]-4-methyl-pentanoic acid methyl ester] | > 5.00 | < 5.00
18 | COC(=O)C(CCSC)Nc1sc(C(=O)c2cnn(-c3ccccc3)c2C)c(N)c1C#N (stereo not shown) [Compound 1-53, 2-[4-Amino-3-cyano-5-(5-methyl-1-phenyl-1H-pyrazole-4-carbonyl)-thiophen-2-ylamino]-4-methylsulfanyl-butyric acid methyl ester] | < 5.00 | < 5.00
19 | COc1ccc(CNc2sc(C(=O)c3cnn(-c4ccccc4)c3C)c(N)c2C#N)cc1OC [Compound 1-54, 4-Amino-2-(3,4-dimethoxy-benzylamino)-5-(5-methyl-1-phenyl-1H-pyrazole-4-carbonyl)-thiophene-3-carbonitrile] | > 5.00 | > 5.00
20 | Cc1c(C(=O)c2sc(NC3CCOC3=O)c(C#N)c2N)cnn1-c1ccccc1 (stereo not shown) [Compound 1-56, 4-Amino-5-(5-methyl-1-phenyl-1H-pyrazole-4-carbonyl)-2-(2-oxo-tetrahydro-furan-3-ylamino)-thiophene-3-carbonitrile] | > 5.00 | < 5.00
21 | CCc1ccccc1Nc1sc(C(=O)c2cnn(-c3ccccc3)c2C)c(N)c1C#N [Compound 1-58, 4-Amino-2-(2-ethyl-phenylamino)-5-(5-methyl-1-phenyl-1H-pyrazole-4-carbonyl)-thiophene-3-carbonitrile] | > 5.00 | > 5.00
22 | Cc1onc(-c2ccccc2)c1C(=O)c1sc(NCCN2CCCCC2)c(C#N)c1N [Compound 1-59, 4-Amino-5-(5-methyl-3-phenyl-isoxazole-4-carbonyl)-2-(2-piperidin-1-yl-ethylamino)-thiophene-3-carbonitrile] | < 5.00 | < 5.00
23 | COC(=O)C(CC(C)C)Nc1sc(C(=O)c2c(-c3ccccc3)noc2C)c(N)c1C#N (stereo not shown) [Compound 1-60, 2-[4-Amino-3-cyano-5-(5-methyl-3-phenyl-isoxazole-4-carbonyl)-thiophen-2-ylamino]-4-methyl-pentanoic acid methyl ester] | > 5.00 | < 5.00
24 | N#Cc1c(NCCN2CCCCC2)sc(C(=O)c2ccccn2)c1N [Compound 1-63, 4-Amino-2-(2-piperidin-1-yl-ethylamino)-5-(pyridine-2-carbonyl)-thiophene-3-carbonitrile] | < 5.00 | < 5.00
25 | COC(=O)C(CC(C)C)Nc1sc(C(=O)c2ccccn2)c(N)c1C#N (stereo not shown) [Compound 1-64, 2-[4-Amino-3-cyano-5-(pyridine-2-carbonyl)-thiophen-2-ylamino]-4-methyl-pentanoic acid methyl ester] | > 5.00 | < 5.00
26 | COC(=O)C(CCSC)Nc1sc(C(=O)c2ccccn2)c(N)c1C#N (stereo not shown) [Compound 1-65, 2-[4-Amino-3-cyano-5-(pyridine-2-carbonyl)-thiophen-2ylamino]-4-methylsulfanyl-butyric acid methyl ester] | < 5.00 | < 5.00
27 | N#Cc1c(NCCN2CCCCC2)sc(C(=O)c2ccc(-c3ccccn3)s2)c1N [Compound 1-70, 4-Amino-2-(2-piperidin-1-yl-ethylamino)-5-(5-pyridin-2-yl-thiophene-2-carbonyl)-thiophene-3-carbonitrile] | > 5.00 | > 5.00
28 | COC(=O)C(CC(C)C)Nc1sc(C(=O)c2ccc(-c3ccccn3)s2)c(N)c1C#N (stereo not shown) [Compound 1-72, 2-[4-Amino-3-cyano-5-(5-pyridin-2-yl-thiophene-2-carbonyl)-thiophen-2-ylamino]-4-methyl-pentanoic acid methyl ester] | > 5.00 | > 5.00
29 | COC(=O)c1ccccc1Nc1sc(C(=O)c2ccc(-c3ccccn3)s2)c(N)c1C#N [Compound 1-73, 2-[4-Amino-3-cyano-5-(5-pyridin-2-yl-thiophene-2-carbonyl)-thiophen-2-ylamino]-benzoic acid methyl ester] | > 5.00 | > 5.00

— patent publication US7585859B2, “PDE4B inhibitors and uses therefor” (Plexxikon, Inc., priority 2004, dated 2009)
